Tests used:
Settings in all cases: 48 h
NOMO1 [1] = assay: cell viability relative to DMSO control; higher = less cytotoxic
Outline: (§1)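 In 1536-well plates, 5 μl of leukemia cells were seeded per well: 500 cells/well for NOMO1 or SEM and 1000 cells/well for P12-Ichikawa. Each line had first been adapted for at least four passages in each medium. Library compounds in DMSO were pin-dosed at 11 threefold concentrations between 47 μM and 0.79 nM, and CellTiter-Glo One luminescence was read after 48 h at 37°C. Viability is a per-plate percentage relative to DMSO wells, with cell-free wells as background.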

P12-Ichikawa [2] = assay: as above
Outline: as §1

SEM cells [3] = assay: as above
Outline: as §1

P12-Ichikawa [4] = assay: AUC of viability dose-response curve (% viability x log10 dose units); higher = less sensitive
Outline: (§2)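 Viability of medium-adapted leukemia cells was measured by CellTiter-Glo One luminescence after 48 h at 37°C with library compounds in DMSO. Doses were 11 threefold steps from 47 μM to 0.79 nM, in 1536-well plates at 500 or 1000 cells/well. Signals were normalised per plate to DMSO and cell-free wells and fitted with a four-parameter log-logistic model on log10 dose. Area under the curve was integrated by trapezoidal rule, with curves exceeding full viability scaled and failed quality-control curves removed.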

SEM cells [5] = assay: as above
Outline: as §2

NOMO1 [6] = assay: as above
Outline: as §2

COC/1=C/C=C2\C(=C/C1=O)[C@H](CCC3=CC(=C(OC)C(=C23)OC)OC)NC(C)=O
cell viability [%]
Settings	NOMO1 [1]	P12-Ichikawa [2]	SEM cells [3]
HPLM + 10% dialyzed FBS, 0.000781 µM	36.2	45.1	32.1
HPLM + 10% dialyzed FBS, 0.00234 µM	33.8	26.4	25.8
HPLM + 10% dialyzed FBS, 0.00702 µM	45.9	14.5	26.1
HPLM + 10% dialyzed FBS, 0.0211 µM	49.8	12.8	23.7
HPLM + 10% dialyzed FBS, 0.0632 µM	40.4	10.9	18.7
HPLM + 10% dialyzed FBS, 0.19 µM	27	9.53	14.5
HPLM + 10% dialyzed FBS, 0.569 µM	30.5	6.89	11
HPLM + 10% dialyzed FBS, 1.71 µM	25.3	4.02	11.5
HPLM + 10% dialyzed FBS, 5.12 µM	19.8	3.71	10.1
HPLM + 10% dialyzed FBS, 15.4 µM	20	3.18	10
HPLM + 10% dialyzed FBS, 46.1 µM	10.6	1.19	3.47
RPMI 5 mM glucose + 10% FBS, 0.000781 µM	23.7	32.3	19
RPMI 5 mM glucose + 10% FBS, 0.00234 µM	20	19.7	19.2
RPMI 5 mM glucose + 10% FBS, 0.00702 µM	17.1	15.6	15.9
RPMI 5 mM glucose + 10% FBS, 0.0211 µM	20.2	10.3	15.9
RPMI 5 mM glucose + 10% FBS, 0.0632 µM	21.5	9.46	12.3
RPMI 5 mM glucose + 10% FBS, 0.19 µM	24.3	7.35	8.3
RPMI 5 mM glucose + 10% FBS, 0.569 µM	17.9	5.7	5.66
RPMI 5 mM glucose + 10% FBS, 1.71 µM	7.99	4.23	6.98
RPMI 5 mM glucose + 10% FBS, 5.12 µM	12.5	4.86	5.01
RPMI 5 mM glucose + 10% FBS, 15.4 µM	10.8	3.24	4.81
RPMI 5 mM glucose + 10% FBS, 46.1 µM	2.76	2.12	2.96
RPMI 5 mM glucose + 10% dialyzed FBS, 0.000781 µM	23.7	41.3	20.9
RPMI 5 mM glucose + 10% dialyzed FBS, 0.00234 µM	21.5	34.3	20.5
RPMI 5 mM glucose + 10% dialyzed FBS, 0.00702 µM	23.3	21.5	21.6
RPMI 5 mM glucose + 10% dialyzed FBS, 0.0211 µM	29.1	16	21.8
RPMI 5 mM glucose + 10% dialyzed FBS, 0.0632 µM	24.9	13.2	10.7
RPMI 5 mM glucose + 10% dialyzed FBS, 0.19 µM	21.3	8.83	8.08
RPMI 5 mM glucose + 10% dialyzed FBS, 0.569 µM	23.5	8.91	7.02
RPMI 5 mM glucose + 10% dialyzed FBS, 1.71 µM	13.1	4.52	5.24
RPMI 5 mM glucose + 10% dialyzed FBS, 5.12 µM	14.3	4.83	4.72
RPMI 5 mM glucose + 10% dialyzed FBS, 15.4 µM	12.8	3.55	4.63
RPMI 5 mM glucose + 10% dialyzed FBS, 46.1 µM	3.31	1.22	2.48

AUC of viability dose-response curve
Settings	HPLM + 10% dialyzed FBS	RPMI 5 mM glucose + 10% FBS	RPMI 5 mM glucose + 10% dialyzed FBS
P12-Ichikawa [4]	54.5	46.5	64.7
SEM cells [5]	80.3	49.8	54.6

CC(C)(C)c1cnc(CSc2cnc(NC(=O)C3CCNCC3)s2)o1
AUC of viability dose-response curve
Settings	NOMO1 [6]	P12-Ichikawa [4]	SEM cells [5]
HPLM + 10% dialyzed FBS	289	250	297
RPMI 5 mM glucose + 10% FBS	321	321	309
RPMI 5 mM glucose + 10% dialyzed FBS	312	330	311

CC[C@@H]1/C=C(\C)C[C@H](C)C[C@H](OC)[C@H]2O[C@@](O)(C(=O)C(=O)N3CCCC[C@H]3C(=O)O[C@H](/C(C)=C/[C@@H]3CC[C@H](Cl)[C@H](OC)C3)[C@H](C)[C@@H](O)CC1=O)[C@H](C)C[C@@H]2OC
SEM cells [3], HPLM + 10% dialyzed FBS
Settings	cell viability [%]
0.000781 µM	115
0.00234 µM	128
0.00702 µM	117
0.0211 µM	135
0.0632 µM	122
0.19 µM	128
0.569 µM	117
1.71 µM	109
5.12 µM	109
15.4 µM	105
46.1 µM	104

AUC of viability dose-response curve
Settings	NOMO1 [6]	P12-Ichikawa [4]	SEM cells [5]
HPLM + 10% dialyzed FBS	457	467	451
RPMI 5 mM glucose + 10% FBS	466	456	453
RPMI 5 mM glucose + 10% dialyzed FBS	474	468	449

Cc1cc2c(cc1C1(c3ccc(C(=O)O)cn3)CC1)C(C)(C)CCC2(C)C
AUC of viability dose-response curve
Settings	NOMO1 [6]	P12-Ichikawa [4]	SEM cells [5]
HPLM + 10% dialyzed FBS	371	433	458
RPMI 5 mM glucose + 10% FBS	429	435	418
RPMI 5 mM glucose + 10% dialyzed FBS	417	429	407

O=C(CCN1CCN(C(=O)OCc2cc(Cl)cc(Cl)c2)CC1)c1ccc2[nH]c(=O)oc2c1
AUC of viability dose-response curve
Settings	NOMO1 [6]	P12-Ichikawa [4]	SEM cells [5]
HPLM + 10% dialyzed FBS	470	466	472
RPMI 5 mM glucose + 10% FBS	431	454	465
RPMI 5 mM glucose + 10% dialyzed FBS	448	459	469

CN(C)CCCN1c2ccccc2CCc2ccc(Cl)cc21
Settings	cell viability [%]
P12-Ichikawa [2], RPMI 5 mM glucose + 10% dialyzed FBS, 0.000781 µM	71
P12-Ichikawa [2], RPMI 5 mM glucose + 10% dialyzed FBS, 0.00234 µM	155
P12-Ichikawa [2], RPMI 5 mM glucose + 10% dialyzed FBS, 0.00702 µM	125
P12-Ichikawa [2], RPMI 5 mM glucose + 10% dialyzed FBS, 0.0211 µM	145
P12-Ichikawa [2], RPMI 5 mM glucose + 10% dialyzed FBS, 0.0632 µM	138
P12-Ichikawa [2], RPMI 5 mM glucose + 10% dialyzed FBS, 0.19 µM	134
P12-Ichikawa [2], RPMI 5 mM glucose + 10% dialyzed FBS, 0.569 µM	142
P12-Ichikawa [2], RPMI 5 mM glucose + 10% dialyzed FBS, 1.71 µM	142
P12-Ichikawa [2], RPMI 5 mM glucose + 10% dialyzed FBS, 5.12 µM	134
P12-Ichikawa [2], RPMI 5 mM glucose + 10% dialyzed FBS, 15.4 µM	125
P12-Ichikawa [2], RPMI 5 mM glucose + 10% dialyzed FBS, 46.1 µM	82.9
SEM cells [3], HPLM + 10% dialyzed FBS, 0.000781 µM	122
SEM cells [3], HPLM + 10% dialyzed FBS, 0.00234 µM	132
SEM cells [3], HPLM + 10% dialyzed FBS, 0.00702 µM	122
SEM cells [3], HPLM + 10% dialyzed FBS, 0.0211 µM	134
SEM cells [3], HPLM + 10% dialyzed FBS, 0.0632 µM	118
SEM cells [3], HPLM + 10% dialyzed FBS, 0.19 µM	122
SEM cells [3], HPLM + 10% dialyzed FBS, 0.569 µM	125
SEM cells [3], HPLM + 10% dialyzed FBS, 1.71 µM	122
SEM cells [3], HPLM + 10% dialyzed FBS, 5.12 µM	105
SEM cells [3], HPLM + 10% dialyzed FBS, 15.4 µM	109
SEM cells [3], HPLM + 10% dialyzed FBS, 46.1 µM	39.6

AUC of viability dose-response curve
Settings	HPLM + 10% dialyzed FBS	RPMI 5 mM glucose + 10% FBS	RPMI 5 mM glucose + 10% dialyzed FBS
NOMO1 [6]	431	448	441
SEM cells [5]	453	453	452

CCc1nc(-c2cccc(C)c2)c(-c2ccnc(NC(=O)c3ccccc3)c2)s1
AUC of viability dose-response curve
Settings	NOMO1 [6]	P12-Ichikawa [4]	SEM cells [5]
HPLM + 10% dialyzed FBS	461	449	463
RPMI 5 mM glucose + 10% FBS	454	456	452
RPMI 5 mM glucose + 10% dialyzed FBS	443	450	449

Cc1cncc2cccc([S+](=O)([O-])N3CCCN(C(=O)CN)C[C@@H]3C)c12
SEM cells [3], HPLM + 10% dialyzed FBS
Settings	cell viability [%]
0.000781 µM	94.8
0.00234 µM	114
0.00702 µM	126
0.0211 µM	124
0.0632 µM	122
0.19 µM	134
0.569 µM	138
1.71 µM	137
5.12 µM	79
15.4 µM	66.7
46.1 µM	39.9

AUC of viability dose-response curve
Settings	NOMO1 [6]	P12-Ichikawa [4]	SEM cells [5]
HPLM + 10% dialyzed FBS	455	401	419
RPMI 5 mM glucose + 10% FBS	446	401	397
RPMI 5 mM glucose + 10% dialyzed FBS	438	412	392

O=C(O)COCCN1CCN(C(c2ccccc2)c2ccc(Cl)cc2)CC1 (centres undefined)
cell viability [%], SEM cells [3]
Settings	HPLM + 10% dialyzed FBS	RPMI 5 mM glucose + 10% FBS
0.000781 µM	126	117
0.00234 µM	125	118
0.00702 µM	117	113
0.0211 µM	130	108
0.0632 µM	140	116
0.19 µM	132	95.4
0.569 µM	128	119
1.71 µM	123	91
5.12 µM	111	113
15.4 µM	119	112
46.1 µM	122	102

AUC of viability dose-response curve
Settings	NOMO1 [6]	P12-Ichikawa [4]	SEM cells [5]
HPLM + 10% dialyzed FBS	463	461	465
RPMI 5 mM glucose + 10% FBS	459	461	453
RPMI 5 mM glucose + 10% dialyzed FBS	451	455	469

COc1ccc2c(c1)c(CC(=O)O)c(C)n2C(=O)c1ccc(Cl)cc1
AUC of viability dose-response curve
Settings	NOMO1 [6]	P12-Ichikawa [4]	SEM cells [5]
HPLM + 10% dialyzed FBS	461	440	459
RPMI 5 mM glucose + 10% FBS	473	466	432
RPMI 5 mM glucose + 10% dialyzed FBS	460	466	466

Cc1cccc(CN2CCN(C(c3ccccc3)c3ccc(Cl)cc3)CC2)c1 (centres undefined)
SEM cells [3], RPMI 5 mM glucose + 10% dialyzed FBS
Settings	cell viability [%]
0.000781 µM	144
0.00234 µM	121
0.00702 µM	122
0.0211 µM	130
0.0632 µM	45.3
0.19 µM	104
0.569 µM	135
1.71 µM	126
5.12 µM	82.2
15.4 µM	121
46.1 µM	113

AUC of viability dose-response curve
Settings	NOMO1 [6]	P12-Ichikawa [4]	SEM cells [5]
HPLM + 10% dialyzed FBS	464	460	436
RPMI 5 mM glucose + 10% FBS	451	429	444
RPMI 5 mM glucose + 10% dialyzed FBS	460	456	443
